Assays:
[1] = tested on: rat primary hippocampal neurons injured with Aβ 1-42; assay: Number of synapses (PSD95/SYN overlap) in primary culture of hippocampal neurons injured with Aβ 1-42; type: cell-based; settings: from 5 nM to 1 μM; Aβ 1-42 injured hippocampal neurons; Example 1
Experimental: Rat hippocampal neurons were cultured as described by Callizot et al. (2013) J. Neurosci. Res. 91706-716. Pregnant female rats of 17 days gestation (Rats Wistar; Janvier Labs France) were killed using a deep anesthesia with CO2 chamber followed by a cervical dislocation. Then, fetuses were removed from the uterus and immediately placed in ice-cold L15 Leibovitz medium with a 2% penicillin (10,000 U/ml) and streptomycin (10 mg/ml) solution (PS) and 1% bovine serum albumin (BSA). Hippocampal neurons were treated for 20 min at 37° C. with a trypsin-EDTA solution at a final concentration of 0.05% trypsin and 0.02% EDTA. The dissociation was stopped by adding Dulbecco's modified Eagle's medium (DMEM) with 4.5 g/l of glucose, containing DNAse I grade 11 (final concentration 0.5 mg/ml) and 10% fetal calf serum (FCS). Cells were mechanically dissociated by three forced passages through the tip of a 10-ml pipette and then centrifuged at 515×g for 10 min at 4° C. The supernatant was discarded, and the pellet was resuspended in a defined culture medium consisting of Neurobasal medium with a 2% solution of B27 supplement, 2 mmol/l of L-glutamine, 2% of PS solution, and 10 ng/ml of brain-derived neurotrophic factor (BDNF). Viable cells were counted in a Neubauer cytometer, using the trypan blue exclusion test. […] The medium was changed every 2 days.
The hippocampal neurons were exposed with Aβ solutions (see below) after 17 days of culture. The Aβ1-42 preparation was done following the procedure described by Callizot et al. (2013) J. Neurosci. Res. 91706-716. Briefly, Aβ1-42 peptide was dissolved in the defined culture medium mentioned above, at an initial concentration of 40 μM. This solution was gently agitated for 3 days at 37° C. in the dark and immediately used after being properly diluted in culture medium to the concentrations used (20 μM (plate 1) or 2.5 μM (plate 2) corresponding to 2 μM or 0.25 μM of oligomers (AβO) respectively).
Donecopride fumarate was solved in culture medium and preincubated 1 h before Aβ application. Aβ1-42 preparation was added to a final concentration of 20 or 2.5 μM (=2 μM or 0.25 μM of AβO, evaluated by automatic Western Blot) diluted in control medium in presence of Donecopride.
Donecopride fumarate (Donecopride) was tested on one culture in a 96 well plate (6 wells per conditions). The compound was preincubated one hour before […] application. The following conditions were assessed:
After permeabilization with 0.1% of saponin, cells were incubated for 2 h with:
a) mouse monoclonal antibody anti post synaptic density 95 kDa (PSD95) at a dilution of 1/100 in PBS containing 1% fetal calf serum and 0.1% of saponin.
b) Rabbit polyclonal antibody anti-synaptophysin (SYN) at the dilution of 1/100 in PBS containing 1% fetal calf serum and 0.1% of saponin.
For each condition, 40 pictures per well were taken using ImageXpress (Molecular Devices) with 40× magnification. All images were taken with the same acquisition parameters.
Synapses evaluation was performed automatically by using Custom module editor (Molecular Devices).
Total number of synapses (overlapping between PSD95/SYN).
To assess the formation of synapses, the distribution of PSD-95, a post-synaptic marker, and synaptophysin, a pre-synaptic marker, was studied. A structure positive for both PSD-95 and synaptophysin staining was considered as a synapse.
Rat hippocampal neurons were cultured as described by Callizot et al. (2013) J. Neurosci. Res. 91:706-716.

[2] = tested on: 5XFAD mice; assay: Novel object recognition test in chronically treated 5XFAD mice; type: in vivo, mouse; settings: 5XFAD females, 1 mg/kg twice a week for 3 months
Experimental: (§1) 5XFAD mice received chronic treatments with drugs or vehicle according to 2 different protocols. In each experiment, drugs or vehicle solution were administered i.p. twice a week (1 mg/kg). In “Protocol 1”, mice (n=6-7 mice per group) were treated with compounds for two months, from 2 to 4 months of age. In “Protocol 2”, mice (n=7) were treated with compounds for three months, from 1 month to 4 months of age. At the end of each protocol, mice were anesthetized with a mixture of 100 mg/kg ketamine and 10 mg/kg xylazine in saline solution and perfused transcardially with PBS. Brains were quickly isolated on ice, the olfactory bulbs and cerebellum removed and the two hemispheres divided. One hemisphere was frozen on dry ice and stored at −80° C. for biochemical analysis, while the other was post-fixed in 4% PFA for immunohistochemistry (IHC).
(§2) 28 female 5XFAD mice (C57BL/6J genetic background) were used in this study. Mice received vehicle or compounds (1 mg/kg) i.p., twice a week for three months, from 1 to 4 months of age.

[3] = tested on: 5XFAD mice; assay: Aβ42 concentration in cerebrospinal fluid of chronically treated 5XFAD mice; type: in vivo, mouse; settings: 1 mg/kg twice a week for 3 months, versus controls
Experimental: as §1, §2

[4] = tested on: 5XFAD mice; assay: Astrogliosis (GFAP staining) in brain sections of 5XFAD mice; type: in vivo, mouse; settings: 1 mg/kg twice a week for 3 months, versus controls
Experimental: as §1
Thirty-micrometer-thick sections were cut using a vibratome (Microm HM 650V, Thermo Scientific, Saint Herblain, France) and stored in cryoprotectant medium at −20° C. For the labeling of amyloid plaques, free-floating tissue sections of frontal cortex, hippocampus and entorhinal cortex (coordinates from the bregma: frontal cortex=1.98 mm, hippocampus=−1.94 mm, entorhinal cortex=−3.08 mm) were extensively washed in PBS and then incubated in blocking solution (PBS; 3% BSA; 0.1% Triton X-100) for 1 h. Sections were stained with Hoechst dye (1:1000, Life Technologies, Saint Aubin, France) for 15 minutes to detect cell nuclei and then with freshly prepared thioflavin T solution (#T3516-5G, Sigma-Aldrich) (final concentration: 0.01 mg/ml in blocking buffer) for 15 minutes. After washing in 70% ethanol for 5 minutes, samples were mounted on poly-lysine slides with coverslips. For GFAP (glial fibrillary acidic protein) staining, free-floating brain sections were blocked as before and incubated with polyclonal rabbit anti-GFAP (1:1000, Z0334, Dako, Les Ullis, France) at 4° C. overnight. After thioflavin T staining and washing with 70% ethanol, the secondary Alexafluor 594 goat anti-rabbit antibody (1:1000, A11012, Life Technologies) was added for 2 h. PBS washes and mounting were performed as described before.
Images were acquired with an Axiolmager Z1 microscope (Carl Zeiss S.A.S., Marly le Roi, France). Analysis of thioflavin T staining was performed blindly and data are presented as the mean number of particles per mm^2 in two to three tissue sections from the same brain area/animal (Image J software). GFAP expression was quantified using Image J software and results are expressed as area fractions.
as §2

[5] = tested on: 5XFAD mice; assay: Amyloid plaque number (thioflavin T staining) in brain sections of 5XFAD mice; type: in vivo, mouse; settings: 1 mg/kg twice a week for 3 months, versus controls
Experimental: as §1
Thirty-micrometer-thick sections were cut using a vibratome (Microm HM 650V, Thermo Scientific, Saint Herblain, France) and stored in cryoprotectant medium at −20° C. […]
Images were acquired with an Axiolmager Z1 microscope (Carl Zeiss S.A.S., Marly le Roi, France). […] GFAP expression was quantified using Image J software and results are expressed as area fractions. […]

SMILES: COc1cc(N)c(Cl)cc1C(=O)CCC1CCN(CC2CCCCC2)CC1 [Donecopride]
- Preservation of the number of synapses [1]: preserve the number of synapses, on a dose dependent manner
- Total exploration time during the training session (NOR test) [2]: did not differ significantly
- Recognition memory: time exploring novel versus familiar object (NOR test) ([2]; 24 h interval between training and test): able to prevent memory alteration
- Aβ42 concentration in cerebrospinal fluid (CSF) [3]: not significantly different compared to controls
- GFAP staining in frontal cortex [4]: not significantly different compared to controls
- GFAP staining in hippocampus [4]: not significantly different compared to controls
- Amyloid plaque number in hippocampus [5]: not significantly different compared to controls
